In article PMC11336974 (2024):

Test system: miR-193a-3p (RNA, miRNA) AACUGGCCUACAAAGUCCCAGU
Experiment: single-strand gel shift
Conditions: 37 °C 30 min, 200 µM Trp; 15% native PAGE, 0.5x TBE

N[C@@H](Cc1c[nH]c2ccccc12)C(=O)O
binding: yes
